Assay results published in PMC5971566, “Population Pharmacokinetic Analyses for Rezafungin (CD101) Efficacy Using Phase 1 Data” (Antimicrobial Agents and Chemotherapy, 2018).
Numbered stars: 1 amine (or outer) side, 2 acyl side, 3 side chain; on linkers, the order of the positions; unused ones are H or OH. Bridge positions count the residues as written; N and C are the ends. Square brackets hold non-standard residues; d marks the D form. Peptide text beside a SMILES is read from it. * marks the point of attachment. Orn(4R-OH,5R-OCH2CH2NMe3+) = C[N+](C)(C)CCO[C@@H](N[*:3])[C@H](O)C[C@H](N[*:1])C(=O)[*:2]; pTerphenylCO(4''-OnC5H11) = CCCCCOc1ccc(-c2ccc(-c3ccc(C(=O)*)cc3)cc2)cc1; hTyr(3S-OH,4S-OH) = N[C@H](C(=O)O)[C@H](O)[C@@H](O)c1ccc(O)cc1; Pro(3S-OH,4S-Me) = C[C@H]1CN[C@H](C(=O)O)[C@H]1O; Hyp = O=C(O)[C@@H]1C[C@@H](O)CN1

Assays:
[1] = Population PK model of rezafungin plasma concentrations, pooled phase 1 single- and multiple-ascending-dose i.v. data; assay type: in vivo, humans (healthy subjects)
Excerpt: Data were pooled from two phase 1 studies (ClinicalTrials.gov registration no. NCT02516904 and NCT02551549) previously described by Sandison et al. ([8]). The protocols and informed consent were reviewed and approved by an appropriate institutional review board before subject enrollment. The studies were designed and monitored in compliance with the ethical principles of good clinical practice and in accordance with the Declaration of Helsinki.
The first study (ClinicalTrials.gov registration no. NCT2516904) evaluated single i.v. doses of rezafungin. A total of 32 subjects were enrolled and randomized evenly to one of four cohorts. Within each cohort, six subjects were administered rezafungin and two subjects were administered placebo as a single 60-min i.v. infusion. A single rezafungin dose of 50, 100, 200, and 400 mg was administered to cohorts 1, 2, 3, and 4, respectively. In all cohorts, blood samples for PK evaluations were collected predose and at 0.25, 0.5, 1, 1.5, 2, 4, 6, 8, 12, 24, 48, and 120 h after the start of infusion and on days 7, 14 (±1 day), and 21 (±1 day).
The second study (ClinicalTrials.gov registration no. NCT02551549) evaluated multiple i.v. doses of rezafungin. A total of 24 subjects were enrolled and randomized evenly to one of three cohorts. Within cohorts 1 and 2, six subjects were administered once-weekly i.v. doses of rezafungin at 100 and 200 mg, respectively, and two subjects were administered once-weekly i.v. doses of placebo, infused over 60 min on days 1 and 8. Within cohort 3, six subjects were administered once-weekly i.v. rezafungin doses of 400 mg and two subjects were administered once-weekly i.v. doses of placebo, infused over 60 min on days 1, 8, and 15. Blood samples were collected predose and at 0.5, 1, 1.5, 2, 4, 6, 8, 12, 24, 48, and 120 h after the start of each infusion and on days 7, 14 (±1 day), 21 (±1 day), and 35 (±1 day, cohort 3 only).
(§1) All blood samples were collected using tubes with K2-EDTA. Plasma was collected by centrifugation and stored at −70°C until analysis. Samples were analyzed using a 100-μl aliquot volume and a protein-precipitation extraction procedure followed by liquid chromatography/tandem mass spectrometry analysis. The rezafungin calibration range was 10.0 ng/ml to 10,000 ng/ml, using d9-CD101 as an internal standard. The range of the assay was extended 10-fold by dilution. An AB-Sciex API 4000 system was operated in the selected reaction-monitoring mode under optimized conditions for detection of rezafungin and d9-CD101 positive ions formed by electrospray ionization. Excellent interassay accuracy and precision, as measured by the use of quality control (QC) samples, were obtained during validation. Across the range of QC samples tested (lower limit of quantitation through the high-QC range), the interassay accuracy (percent bias from nominal) ranged from 0.3% to 4.3%, while the interassay precision (percent CV) ranged from 2.7% to 5%. Dilution QC samples performed well, with −1.5% bias and an interassay precision of 3.4%.
Candidate population PK models were fit to the pooled data using Monte Carlo parametric expectation maximization as implemented in the open-source software program S-ADAPT (version 1.5.6) ([22][–][24]). The model selection criteria used to discriminate between candidate PK models included (i) evaluation of individual and population mean parameter estimates and their precision (standard error of the mean [SEM]), (ii) graphical examination of standard goodness-of-fit plots and plots of the observed versus individual predicted concentrations, (iii) reductions in both residual variability and interindividual variability, and (iv) comparison of the objective function for nested models or the Akaike information criterion ([25]) for either nested or nonnested models.
Interindividual variability was estimated for each structural population PK model parameter, where possible, by using an exponential-error model. […]

[2] = Stability of rezafungin in plasma samples (bioanalytical validation, LC-MS/MS); assay type: in vitro ADME; conditions: K2-EDTA plasma samples
Procedure: as §1

[3] = 400 mg the highest dose evaluated; cited from earlier work
Procedure: One of the unique features of rezafungin is its long half-life. […] This value far exceeds those reported for other echinocandins, which have terminal half-lives ranging from 9 to 52 h ([9][–][11]). […] Moreover, the model- ...

[4] = cited from earlier work
Procedure: One of the unique features of rezafungin is its long half-life. […] This value far exceeds those reported for other echinocandins, which have terminal half-lives ranging from 9 to 52 h ([9][–][11]). […] Given rezafungin's long half-life, it is being evaluated ...

C. albicans isolates = conditions: cited from earlier work
Excerpt: (§2) Historically, Candida albicans has been the predominant pathogen in candidemia and invasive candidiasis infections ([1]). Despite this, Candida glabrata is now emerging as a greater concern for clinicians due to a recent increase in prevalence among candidemia and invasive candidiasis infections and the pathogen's natural predisposition for expressing azole and echinocandin resistance mutations ([2], [3]). Accordingly, the incidence of infections due to C. glabrata not only has increased more than 4-fold over the past 20 years ([4]) but also has been accompanied by an increased prevalence of b ...

C. glabrata isolates = conditions: including an echinocandin-resistant C. glabrata isolate; cited from earlier work
Excerpt: as §2

Candida albicans = conditions: including azole- and echinocandin-resistant isolates; ref not given; cited from earlier work
Excerpt: as §2

Candida glabrata = conditions: including azole- and echinocandin-resistant isolates; ref not given; cited from earlier work
Excerpt: as §2

[5] = healthy subjects n = 42, i.v., four-compartment population PK model
[6] = weight power function centered on 75 kg, power fixed to 0.75
[7] = weight power function centered on 75 kg, power fixed to 1.0

Compound: CCCCCOc1ccc(-c2ccc(-c3ccc(C(=O)N[C@H]4C[C@@H](O)[C@@H](OCC[N+](C)(C)C)NC(=O)[C@@H]5[C@@H](O)[C@@H](C)CN5C(=O)[C@H]([C@@H](C)O)NC(=O)[C@H]([C@H](O)[C@@H](O)c5ccc(O)cc5)NC(=O)[C@@H]5C[C@@H](O)CN5C(=O)[C@H]([C@@H](C)O)NC4=O)cc3)cc2)cc1 [Rezafungin] ({pTerphenylCO(4''-OnC5H11)}-[Orn(4R-OH,5R-OCH2CH2NMe3+)]T[Hyp][hTyr(3S-OH,4S-OH)]T[Pro(3S-OH,4S-Me)]; lactam 1-C)
- rezafungin clearance, typical 50-kg subject ([1]; final population PK model, allometric scaling, 50 kg): 0.138 L/h
- rezafungin clearance, typical 100-kg subject ([1]; final population PK model, allometric scaling, 100 kg): 0.232 L/h
- Q2, distributional clearance, population mean final estimate [1, 5]: 24.4 L/h
- Q3, distributional clearance, population mean final estimate [1, 5]: 0.912 L/h
- Q4, distributional clearance, population mean final estimate [1, 5]: 0.0739 L/h
- V2, volume of distribution of the peripheral compartment, population mean final estimate [1, 5]: 12.6 L
- V3, volume of distribution of the peripheral compartment, population mean final estimate [1, 5]: 8.75 L
- V4, volume of distribution of the peripheral compartment, population mean final estimate [1, 5]: 27.9 L
- Vc, volume of distribution of the central compartment, population mean final estimate [1, 5]: 8.94 L
- clearance ([1]; human, iv, healthy subjects n = 42, i.v. 60-min infusion 50-400 mg single or once weekly, plasma, linear four-compartment model, S-ADAPT, read-out: CL, total clearance, population mean final estimate (converted)): 3.13 mL/min
- CL coefficient, population mean final estimate [1, 6]: 0.187 liter/h/75 kg
- Q2 coefficient, population mean final estimate [1, 6]: 24.3 liters/h/75 kg
- Q3 coefficient, population mean final estimate [1, 6]: 0.908 liter/h/75 kg
- Q4 coefficient, population mean final estimate [1, 6]: 0.0736 liter/h/75 kg
- V2 coefficient, population mean final estimate [1, 7]: 12.5 liters/75 kg
- V3 coefficient, population mean final estimate [1, 7]: 8.70 liters/75 kg
- V4 coefficient, population mean final estimate [1, 7]: 27.7 liters/75 kg
- Vc coefficient, population mean final estimate [1, 7]: 8.88 liters/75 kg
- freeze-thaw stability [2]: stable through four freeze-thaw cycles
- stability under frozen storage conditions ([2]; either at −20°C or at −70°C): at least 164 days
- stability at room temperature ([2]; room temperature): at least 24 h
- dose proportionality of maximum concentration, AUC and half-life [3]: dose proportional up to 400 mg
- serious or severe adverse events ([4]; either phase 1 study): No serious or severe adverse events were observed
- patients with moderate treatment-related adverse events ([4]; of the 42 patients evaluated, phase 1 studies): 4
- safety signals ([4]; phase 1 studies): no safety signals were noted
- in vivo activity against a range of C. albicans isolates (C. albicans isolates): in vivo activity
- in vivo activity against a range of C. glabrata isolates (C. glabrata isolates): in vivo activity
- in vitro activity against C. albicans (Candida albicans): potent in vitro activity
- in vitro activity against C. glabrata (Candida glabrata): potent in vitro activity
